Assay results as given in patent US9908850B2, “Salt forms of [R—(R*,R*)]-2-(4-fluorophenyl)-β,δ-dihydroxy-5-(1-methylethyl)3-phenyl-4-[(phenylamino)carbonyl]-1H-pyrrole-1-hepatonic acid” (Pfizer Inc., priority 2004, dated 2018).

Test: hygroscopicity of the salt forms
Format: physicochemical
Details: solid salt; considered to be non-hygroscopic

| Compound | hygroscopicity |
| --- | --- |
| [R—(R*,R*)]-2-(4-Fluorophenyl)-β,δ-dihydroxy-5-(1-methylethyl)-3-phenyl-4-[(phenylamino)carbonyl]-1H-pyrrole-1-heptanoic acid,N-ethylethanamine [diethylamine] | non-hygroscopic |
| [R—(R*,R*)]-2-(4-Fluorophenyl)-β,δ-dihydroxy-5-(1-methylethyl)-3-phenyl-4-[(phenylamino)carbonyl]-1H-pyrrole-1-heptanoic acid, tetrahydro-2H-1,4-oxazine [morpholine] | non-hygroscopic |
| [R—(R*,R*)]-2-(4-Fluorophenyl)-β,δ-dihydroxy-5-(1-methylethyl)-3-phenyl-4-[(phenylamino)carbonyl]-1H-pyrrole-1-heptanoic acid, tertiary-butylamine [erbumine] | non-hygroscopic |
| CC(C)c1c(C(=O)Nc2ccccc2)c(-c2ccccc2)c(-c2ccc(F)cc2)n1CC[C@@H](O)C[C@@H](O)CC(=O)O.c1ccc(CNCCNCc2ccccc2)cc1 (relative stereo) [benzathine, [R—(R*,R*)]-2-(4-Fluorophenyl)-β,δ-dihydroxy-5-(1-methylethyl)-3-phenyl-4-[(phenylamino)carbonyl]-1H-pyrrole-1-heptanoic acid,N,N^1-bis(phenylmethyl)-1,2-ethanediamine] | non-hygroscopic |
| CC(C)c1c(C(=O)Nc2ccccc2)c(-c2ccccc2)c(-c2ccc(F)cc2)n1CC[C@@H](O)C[C@@H](O)CC(=O)O.c1ccc(CCNCc2ccccc2)cc1 (relative stereo) [benethamine, [R—(R*,R*)]-2-(4-Fluorophenyl)-β,δ-dihydroxy-5-(1-methylethyl)-3-phenyl-4-[(phenylamino)carbonyl]-1H-pyrrole-1-heptanoic acid, N-benzyl-2-phenylethylamine] | non-hygroscopic |
| [R—(R*,R*)]-2-(4-Fluorophenyl)-β,δ-dihydroxy-5-(1-methylethyl)-3-phenyl-4-[(phenylamino)carbonyl]-1H-pyrrole-1-heptanoic acid,N-(phenylmethyl)benzenemethanamine [dibenzylamine] | non-hygroscopic |
